One assay deals with T1, recombinant human estrone sulfatase (Homo sapiens, UniProt P08842).
T1 sequence (P08842 22-583): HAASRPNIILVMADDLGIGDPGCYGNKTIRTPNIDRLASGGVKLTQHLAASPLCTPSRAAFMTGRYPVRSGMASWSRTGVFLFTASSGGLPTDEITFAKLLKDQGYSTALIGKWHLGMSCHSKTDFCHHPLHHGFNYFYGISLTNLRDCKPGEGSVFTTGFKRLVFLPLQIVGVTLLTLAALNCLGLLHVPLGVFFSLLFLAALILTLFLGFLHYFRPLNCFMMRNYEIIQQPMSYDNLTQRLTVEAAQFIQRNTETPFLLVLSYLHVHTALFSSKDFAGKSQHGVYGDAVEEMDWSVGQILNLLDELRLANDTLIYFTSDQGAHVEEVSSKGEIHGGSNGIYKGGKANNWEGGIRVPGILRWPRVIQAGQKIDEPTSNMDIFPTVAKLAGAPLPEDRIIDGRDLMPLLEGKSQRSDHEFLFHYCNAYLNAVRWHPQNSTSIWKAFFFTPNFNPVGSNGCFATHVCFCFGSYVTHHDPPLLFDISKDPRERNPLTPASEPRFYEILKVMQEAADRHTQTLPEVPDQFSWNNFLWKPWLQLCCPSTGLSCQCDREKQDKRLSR
The assay can be described thus: Estrone sulfatase (steroid sulfatase) inhibition test (Method A), [3H]-estrone sulfate substrate. The format is biochemical. To be noted: [6,7-3H]-estrone sulfate 6.67 μmol/L, pH 7.5, 37° C., 30 minutes, read-out: Inhibitory Activity against Steroid Sulfatase IC50. Here is the method: Estrone Sulfatase (Steroid Sulfatase) Inhibition Test (Method A)
[6,7-^3H]-Estrone sulfate (final concentration 6.67 μmol/L; 0.025 μCi/tube), recombinant human estrone sulfatase (33 ng/tube) and an estra-1,3,5(10)-triene derivative of each test concentration (the estra-1,3,5(10)-triene derivative was dissolved in 0.003 mL of DMSO) were added to a phosphate buffer (pH 7.5, final volume 0.15 mL) containing 0.25 mol/L of sucrose and 0.04 mol/L of nicotinamide, and the mixture was subjected to enzymatic reaction at 37° C. for 30 minutes. The recombinant human estrone sulfatase used herein was prepared from CHO (Chinese hamster ovary) cells, which were transfected with a human estrone sulfatase gene, after partial purification. After the enzymatic reaction, toluene (0.5 mL) was added to the reaction mixture followed by stirring, and the mixture was centrifuged at 9000 rpm for 5 minutes. The toluene extract layer was taken out, and the radioactivity of the [^3H]-estrone formed therein was measured with a liquid scintillation counter. The measurement was carried out at one time by duplication, and the assay fluctuation was 10% or less. The enzymatic reaction in the absence of the test compound was also carried out simultaneously. The inhibitory activity against estrone sulfatase of the test compound of each concentration was calculated according to the equation shown below. Inhibitory Activity against Estrone Sulfatase (%)=100−{100×[(A−C)/(B−C)]} wherein; • A: the amount of [^3H]-estrone formed in the presence of the test compound • B: the amount of [^3H]-estrone formed in the absence of the test compound • C: the amount of [^3H]-estrone formed in the absence of both of the recombinant human estrone sulfatase and the test compound.
(§1) The inhibitory activity against estrone sulfatase of the estra-1,3,5(10)-triene derivative tested can be designated by the concentration (IC50) of the derivative that reduces the estrone sulfatase activity to a half of that in the control system not containing the test compound.
The term IC50 denotes the concentration at which inhibition is half-maximal. Turning to `CC12CCC3c4ccc(OS(N)(=O)=O)cc4CCC3C1CC=C2C(=O)N1CCCC1` (stereo not drawn) [Compound 1], the IC50 was found to be 4.4 nM.

As for `CC12CCC3c4ccc(OS(N)(=O)=O)cc4CCC3C1CC=C2C(=O)NC1CCCC1` (stereo not drawn) [Compound 7], the IC50 was 1 nM.

As to `CC12CCC3c4ccc(OS(N)(=O)=O)cc4CCC3C1CC=C2C(=O)NCC1CC1` (stereo not drawn) [Compound 9], the IC50 was 3.6 nM.

As to `C=CCNC(=O)C1=CCC2C3CCc4cc(OS(N)(=O)=O)ccc4C3CCC12C` (stereo not drawn) [Compound 10], the IC50 was found to be 5.6 nM.

Regarding `COC(=O)CCCCCNC(=O)C1=CCC2C3CCc4cc(OS(N)(=O)=O)ccc4C3CCC12C` (stereo not drawn) [Compound 14], the IC50 amounted to 10 nM.

Regarding `COCCNC(=O)C1=CCC2C3CCc4cc(OS(N)(=O)=O)ccc4C3CCC12C` (stereo not drawn) [Compound 18], the IC50 came out at 2.8 nM.

As for `CC12CCC3c4ccc(OS(N)(=O)=O)cc4CCC3C1CC=C2C(=O)NCCCCO` (stereo not drawn) [Compound 22], the IC50 was found to be 9.8 nM.

For `COC(=O)C(NC(=O)C1=CCC2C3CCc4cc(OS(N)(=O)=O)ccc4C3CCC12C)C(C)C` (stereo not drawn) [Compound 29], the IC50 was 4.5 nM.

Regarding `COC(=O)C1CCCN1C(=O)C1=CCC2C3CCc4cc(OS(N)(=O)=O)ccc4C3CCC12C` (stereo not drawn) [Compound 33], the IC50 came to 5.1 nM.

As for `CC12CCC3c4ccc(OS(N)(=O)=O)cc4CCC3C1CC=C2C(=O)Nc1ccccc1` (stereo not drawn) [Compound 34], the IC50 turned out to be 10 nM.

As to `CC12CCC3c4ccc(OS(N)(=O)=O)cc4CCC3C1CC=C2C(=O)Nc1cnccn1` (stereo not drawn) [Compound 40], the IC50 came to 9.4 nM.

Regarding `CC12CCC3c4ccc(OS(N)(=O)=O)cc4CCC3C1CCC2C(=O)N1CCCC1` (stereo not drawn) [Compound 73], the IC50 amounted to 6 nM.

Turning to `COCCNC(=O)C1CCC2C3CCc4cc(OS(N)(=O)=O)ccc4C3CCC12C` (stereo not drawn) [Compound 76], the IC50 was determined as 15.5 nM.

For the compound `CCCNC(=O)C=C1CCC2C3CCc4cc(OS(N)(=O)=O)ccc4C3CCC12C` (stereo not drawn) [Compound 81], the IC50 worked out at 6.2 nM.

The next assay has as its target T1, recombinant human estrone sulfatase. The assay can be described thus: Estrone sulfatase (steroid sulfatase) inhibition test (Method B), 4-methylumbelliferyl sulfate substrate. The format is biochemical. To be noted: 4-methylumbelliferyl sulfate 0.3 mmol/L, pH 7.5, 37° C., 1 hour, read-out: Inhibitory Activity against Steroid Sulfatase IC50. Here is the method: Estrone Sulfatase (Steroid Sulfatase) Inhibition Test (Method B)
4-Methylumbelliferyl sulfate (final concentration 0.3 mmol/L), recombinant human estrone sulfatase (7.8 ng/well) and an estra-1,3,5(10)-triene derivative of each test concentration (the estra-1,3,5(10)-triene derivative was dissolved in 0.001 mL of DMSO) were added to a phosphate buffer (pH 7.5, final volume 0.1 mL) containing 0.28 mol/L of sucrose and 0.04 mol/L of nicotinamide, and the mixture was subjected to enzymatic reaction at 37° C. for 1 hour. The recombinant human estrone sulfatase used herein was prepared from CHO (Chinese hamster ovary) cells, which were transfected with a human estrone sulfatase gene, after partial purification. After the enzymatic reaction, an aqueous solution of 2 mol/L glycine-sodium hydroxide (pH 10.3, 0.13 mL) was added thereto followed by stirring. Using a fluorescent plate reader (Cyto Fluor II), the fluorescent intensity of 4-methylumbelliferone formed in the system was measured. The measurement was carried out at one time by duplication, and the assay fluctuation was 10% or less. The enzymatic reaction in the absence of the test compound was also carried out simultaneously. The inhibitory activity against estrone sulfatase of the test compound of each concentration was calculated according to the equation shown below. Inhibitory Activity against Estrone Sulfatase (%)=100−[100×(A/B)] wherein; • A: the amount of 4-methylumbelliferone formed in the presence of the test compound, • B: the amount of 4-methylumbelliferone formed in the absence of the test compound.
as §1
Regarding `CC12CCC3c4ccc(OS(N)(=O)=O)cc4CCC3C1CC=C2C(=O)N1CCN(c2ccccn2)CC1` (stereo not drawn) [Compound 5], the IC50 turned out to be 3.7 nM.

For `CC(C)(CO)NC(=O)C1=CCC2C3CCc4cc(OS(N)(=O)=O)ccc4C3CCC12C` (stereo not drawn) [Compound 23], the IC50 was 26 nM.

As for `CC12CCC3c4ccc(OS(N)(=O)=O)cc4CCC3C1CC=C2C(=O)NCc1ccc(C(=O)O)cc1` (stereo not drawn) [Compound 37], the IC50 was 6 nM.

As to `COc1ccc(NC(=O)C2=CCC3C4CCc5cc(OS(N)(=O)=O)ccc5C4CCC23C)cn1` (stereo not drawn) [Compound 39], the IC50 came to 3.7 nM.

As for `COc1ccnc(CNC(=O)C2=CCC3C4CCc5cc(OS(N)(=O)=O)ccc5C4CCC23C)c1` (stereo not drawn) [Compound 47], the IC50 was found to be 5 nM.

In the case of `Cc1cnc(CNC(=O)C2=CCC3C4CCc5cc(OS(N)(=O)=O)ccc5C4CCC23C)cn1` (stereo not drawn) [Compound 49], the IC50 was found to be 24.2 nM.

As for `CC12CCC3c4ccc(OS(N)(=O)=O)cc4CCC3C1CC=C2C(=O)NCCCc1ccncc1` (stereo not drawn) [Compound 55], the IC50 was 4.5 nM.

With `CC12CCC3c4ccc(OS(N)(=O)=O)cc4CCC3C1CC=C2C(=O)Nc1ccon1` (stereo not drawn) [Compound 58], the IC50 worked out at 11 nM.

Regarding `CCn1nccc1NC(=O)C1=CCC2C3CCc4cc(OS(N)(=O)=O)ccc4C3CCC12C` (stereo not drawn) [Compound 62], the IC50 turned out to be 8.9 nM.

On to `CC12CCC3c4ccc(OS(N)(=O)=O)cc4CCC3C1CC=C2C(=O)NNc1ccccn1` (stereo not drawn) [Compound 69], for which the IC50 was found to be 6 nM.

On to `COCCOCCOC(=O)C1=CCC2C3CCc4cc(OS(N)(=O)=O)ccc4C3CCC12C` (stereo not drawn) [Compound 71], for which the IC50 was found to be 17 nM.

For the compound `CCOC(=O)CC1CCC2C3CCc4cc(OS(N)(=O)=O)ccc4C3CCC12C` (stereo not drawn) [Compound 83], the IC50 was found to be 12 nM.

Consider `CCCNC(=O)CC1CCC2C3CCc4cc(OS(N)(=O)=O)ccc4C3CCC12C` (stereo not drawn) [Compound 85], for which the IC50 was 10.3 nM.

On to `CC12CCC3c4ccc(OS(N)(=O)=O)cc4CCC3C1CCC2CC(=O)N1CCOCC1` (stereo not drawn) [Compound 88], for which the IC50 came out at 11 nM.

Regarding `CC12CCC3c4ccc(OS(N)(=O)=O)cc4CCC3C1CC=C2c1cccnc1` (stereo not drawn) [Compound 90], the IC50 is 12 nM.

Take `Cc1coc(C2=CCC3C4CCc5cc(OS(N)(=O)=O)ccc5C4CCC23C)n1` (stereo not drawn) [Compound 92]: the IC50 came out at 21 nM.
